Literature values in patent US10316053B2, “Flavonoid compounds and uses thereof” (ARMARON BIO PTY LTD, priority 2012, dated 2019).

Tested on: myocardial ischaemia and reperfusion
Settings: in vitro studies; Wang et al., Br J Pharmacol (2004) 142, 443-452

For `O=c1c(O)c(-c2ccc(O)c(O)c2)oc2ccccc12` [DiOHF, 3′,4′-dihydroxy flavonol], the “infarct and injury associated with myocardial ischaemia and reperfusion” value is given as “reduce infarct and injury”.
